The text below walks through data of patent publication US10464926B2, “Heterobicyclic compounds and their use for the treatment of tuberculosis” (OTSUKA PHARMACEUTICAL CO., LTD., priority 2014, dated 2019).

In general, melting point refers to the temperature of the solid-liquid transition.

Molecules are shown by their SMILES.

Consider `O=C1CCc2c(OCC3(O)CCN(c4ccc(Cl)cc4F)CC3)ccc(Cl)c2N1`, for which the melting point fell in the range of 222.9 to 223 °C. The compound `COCCOc1ccc(N2CCC(O)(COc3ccc(F)c4c3CCC(=O)N4)CC2)c(F)c1` yielded a melting point of 174 °C. In turn, `O=C1CCc2c(OCC3(O)CCN(c4cc(OC(F)(F)F)c(Cl)cc4F)CC3)ccc(F)c2N1` had a melting point of 208 °C. The compound `CCOc1cc(F)c(N2CCC(O)(COc3ccc(Cl)c4c3CCC(=O)N4)CC2)cc1F` had a melting point of 169 to 169.2 °C. With `O=C1CCc2c(OCC3(O)CCN(c4ccc(OC(F)(F)F)cc4F)CC3)ccc(Cl)c2N1` the figure was 149.7 to 149.9 °C; with `COc1cc(F)c(N2CCC(O)(COc3ccc(Cl)c4c3CCC(=O)N4)CC2)c(F)c1`, 171.1 to 171.3 °C. As for `CCOc1c(F)c(F)c(N2CCC(O)(COc3ccc(F)c4c3CCC(=O)N4)CC2)c(F)c1F`, the melting point fell in the range of 208.9 to 209.3 °C. `CCOc1c(F)c(F)c(N2CCC(O)(COc3ccc(Cl)c4c3CCC(=O)N4)CC2)c(F)c1F` displayed a melting point of 174.4 to 174.5 °C. Take `Cc1cc(N2CCC(O)(COc3ccc(F)c4c3CCC(=O)N4)CC2)c(F)cc1Cl`: the melting point lay within 208.6 to 208.8 °C. The compound `Cc1cc(Cl)cc(F)c1N1CCC(O)(COc2ccc(F)c3c2CCC(=O)N3)CC1` showed a melting point of 258.8 to 259 °C. `CCOc1cc(F)c(N2CCC(O)(COc3ccc(F)c4c3CCC(=O)N4)CC2)cc1OC` came in with a melting point of 190.8 to 191.1 °C. `CCOc1cc(F)c(N2CCC(O)(COc3ccc(F)c4c3CCC(=O)N4)CC2)c(F)c1` displayed a melting point of 207.9 to 208.8 °C.

Consider `O=C1CCc2c(OCC3(O)CCN(c4ccc(OCCF)cc4F)CC3)ccc(F)c2N1`, for which the melting point is 186.5 to 186.7 °C. In turn, `O=C1CCc2c(OCC3(O)CCN(c4ccc5sccc5c4)CC3)ccc(F)c2N1` had a melting point of 209.5 to 210.2 °C. With `O=C1CCc2c(OCC3(O)CCN(c4ccc5sccc5c4)CC3)ccc(Cl)c2N1` the figure was 193.8 to 194.5 °C; with `O=C1CCc2c(OCC3(O)CCN(c4ccc5occc5c4)CC3)ccc(F)c2N1`, 215.7 to 216 °C; with `O=C1CCc2c(OCC3(O)CCN(c4ncc(C(F)(F)F)cc4Cl)CC3)ccc(Cl)c2N1`, 193 to 194.7 °C. With `O=C1CCc2c(OCC3(O)CCN(c4ncc(Cl)cc4F)CC3)ccc(Cl)c2N1`, the melting point lay within 174.4 to 175.8 °C. As for `O=C1CCc2c(OCC3(O)CCN(c4ccc(OCc5ccc(C(F)(F)F)cc5)cc4F)CC3)ccc(F)c2N1`, the melting point lay in the range of 207.4 to 210.3 °C. The compound `O=C1CCc2c(OCC3(O)CCN(c4ccc(F)cc4F)CC3)ccc(Cl)c2N1` had a melting point of 200 to 200.3 °C.

Compound `CC(C)Oc1cc(N2CCC(O)(COc3ccc(F)c4c3CCC(=O)N4)CC2)c(F)cc1Cl` returned a melting point of 216.7 to 217 °C.

Compound `O=C1CCc2c(OCC3(O)CCN(c4cc(OCc5ccc(Cl)cc5)c(Cl)cc4F)CC3)ccc(F)c2N1` displayed a melting point of 205.1 to 205.7 °C.

`CC(C)Oc1cc(N2CCC(O)(COc3ccc(Cl)c4c3CCC(=O)N4)CC2)c(F)cc1Cl` came in with a melting point of 173.3 to 173.5 °C. The compound `COCCOc1cc(N2CCC(O)(COc3ccc(F)c4c3CCC(=O)N4)CC2)c(F)cc1Cl` registered a melting point of 170.6 to 170.8 °C. Under `CN(C)CCOc1cc(N2CCC(O)(COc3ccc(F)c4c3CCC(=O)N4)CC2)c(F)cc1Cl` stands 162.9 to 164.1 °C; under `CCCOc1cc(N2CCC(O)(COc3ccc(F)c4c3CCC(=O)N4)CC2)c(F)cc1Cl`, 200.7 to 201.4 °C; under `O=C1CCc2c(OCC3(O)CCN(c4cc(OCCOc5ccc(F)cc5)c(Cl)cc4F)CC3)ccc(F)c2N1`, 159.2 to 160 °C. In turn, `CCCc1cc(N2CCC(O)(COc3ccc(F)c4c3CCC(=O)N4)CC2)c(F)cc1Cl` gave a melting point of 196.5 to 196.6 °C. `CC(C)c1cc(N2CCC(O)(COc3ccc(F)c4c3CCC(=O)N4)CC2)c(F)cc1Cl` had a melting point of 225.3 to 225.7 °C. Regarding `Cc1cc(N2CCC(O)(COc3ccc(Cl)c4c3CCC(=O)N4)CC2)c(F)cc1F`, the melting point lay in the range of 195 to 195.2 °C. Under `CCOc1cnc(N2CCC(O)(COc3ccc(Cl)c4c3CCC(=O)N4)CC2)c(Cl)c1` stands 169 to 170.4 °C. With `CCc1cc(N2CCC(O)(COc3ccc(F)c4c3CCC(=O)N4)CC2)c(F)cc1Cl`, the melting point fell in the range of 201.3 to 202.4 °C. In turn, `COc1cc(N2CCC(O)(COc3ccc(Cl)c4c3CCC(=O)N4)CC2)c(F)cc1Cl` showed a melting point of 228.7 to 228.9 °C. For the compound `O=C1CCc2c(OCC3(O)CCN(c4ncc(Br)cc4F)CC3)ccc(Cl)c2N1`, the melting point lay within 231.2 to 233.5 °C. Compound `CSc1ccc(N2CCC(O)(COc3ccc(Cl)c4c3CCC(=O)N4)CC2)c(Cl)c1` registered a melting point of 160.7 to 160.9 °C.

`O=C1CCc2c(OCC3(O)CCN(c4cc5c(cc4F)OC(F)(F)O5)CC3)ccc(F)c2N1` returned a melting point of 226.6 to 226.7 °C. The compound `O=C1CCc2c(OCC3(O)CCN(c4ccc(Br)cc4F)CC3)ccc(Cl)c2N1` gave a melting point of 223.1 to 223.2 °C. `O=C1CCc2c(OCC3(O)CCN(c4c(F)cc(Br)cc4F)CC3)ccc(Cl)c2N1` displayed a melting point of 195.3 to 195.4 °C.

Turning to `CCCc1cc(N2CCC(O)(COc3ccc(Cl)c4c3CCC(=O)N4)CC2)c(F)cc1F`, the melting point lay in the range of 156.9 to 157 °C. As to `CCc1cc(N2CCC(O)(COc3ccc(Cl)c4c3CCC(=O)N4)CC2)c(F)cc1F`, the melting point lay within 178.8 to 178.9 °C. Regarding `O=C1CCc2c(OCC3(O)CCN(c4cc5c(cc4F)OC(F)(F)O5)CC3)cc(F)c(Cl)c2N1`, the melting point was 249.4 to 250.5 °C (dec.). With `O=C1CCc2c(OCC3(O)CCN(c4nc5ccc(Cl)cc5o4)CC3)ccc(F)c2N1` the figure was 249 to 250 °C; with `O=C1CCc2c(OC[C@]3(O)CCN(c4c(F)cc(Cl)cc4F)C[C@H]3O)ccc(Cl)c2N1`, 197 to 199 °C.

For `O=C1CCc2c(OC[C@]3(O)CCN(c4ccc(Cl)cc4Cl)C[C@H]3O)ccc(Cl)c2N1`, the melting point is 184.1 to 185.1 °C. `O=C1CCc2c(OC[C@]3(O)CCN(c4ccccc4Cl)C[C@H]3O)ccc(F)c2N1` registered a melting point of 161.3 to 161.4 °C. With `O=C1CCc2c(OC[C@]3(O)CCN(c4c(F)cc(Br)cc4F)C[C@H]3O)cc(F)c(F)c2N1` the figure was 204.5 to 204.6 °C; with `Cn1c(N2CC[C@@](O)(COc3ccc(F)c4c3CCC(=O)N4)[C@H](O)C2)nc2ccccc21`, 138 to 147 °C; with `O=C1CCc2c(NCC3(O)CCN(c4ccc(Cl)cc4Cl)CC3)ccc(F)c2N1`, 226 to 227 °C.

Regarding `O=C1CCc2c(OCC3(O)CCN(c4cc(Cl)c(F)cc4Cl)CC3)ccc(F)c2N1`, the melting point was found to be 207.9 °C.

The compound `CCNC(=O)O[C@@H]1CN(c2ccc(Cl)cc2F)CC[C@@]1(O)COc1ccc(F)c2c1CCC(=O)N2` returned a melting point of 156 to 157 °C. For `O=C1CCc2c(OCC3(O)CCN(c4ccc(C(F)(F)F)cc4)CC3)ccc(F)c2N1`, the melting point amounted to 216.1 °C. In turn, `O=C1CCc2c(OCC3(O)CCN(c4cccnc4)CC3)ccc(F)c2N1` yielded a melting point of 178.2 to 178.8 °C. With `O=C1CCc2c(OCC3(O)CCN(c4cc(F)c(Cl)cc4Cl)CC3)ccc(F)c2N1` the figure was 198.7 to 198.9 °C; with `O=C1CCc2c(OCC3(O)CCN(c4ccc(Cl)c(Cl)c4)CC3)ccc(F)c2N1`, 230.9 to 231.2 °C; with `O=C1CCc2c(OCC3(O)CCN(c4ccsc4)CC3)ccc(F)c2N1`, 200.4 to 200.5 °C. `O=C1CCc2c(OCC3(O)CCN(c4c(F)cccc4Cl)CC3)ccc(F)c2N1` returned a melting point of 212 to 213 °C.

In the case of `O=C1CCc2c(OCC3(O)CCN(c4cc(F)c(Cl)cc4F)CC3)ccc(F)c2N1`, the melting point lay within 185.1 to 185.2 °C. `COc1cc(N2CCC(O)(COc3ccc(F)c4c3CCC(=O)N4)CC2)ccc1Cl` had a melting point of 222.6 to 222.7 °C. Compound `O=C1CCc2c(OCC3(O)CCN(c4c(Cl)cccc4Cl)CC3)ccc(F)c2N1` showed a melting point of 203.6 to 203.8 °C. `CCOc1ccc(N2CCC(O)(COc3ccc(F)c4c3CCC(=O)N4)CC2)cc1` yielded a melting point of 198.8 to 199.1 °C. For the compound `O=C1CCc2c(OCC3(O)CCN(c4c(Cl)cc(Cl)cc4Cl)CC3)ccc(F)c2N1`, the melting point is 239.4 to 239.8 °C.

Compound `CC(C)c1ccc(N2CCC(O)(COc3ccc(F)c4c3CCC(=O)N4)CC2)cc1` had a melting point of 194.9 to 195 °C. Compound `N#Cc1ccc(N2CCC(O)(COc3ccc(F)c4c3CCC(=O)N4)CC2)cc1` returned a melting point of 216 °C. With `O=C1CCc2c(OCC3(O)CCN(c4ccc(Oc5ccccc5)cc4)CC3)ccc(F)c2N1` the figure was 186.9 to 187.2 °C; with `O=C1CCc2c(OCC3(O)CCN(c4cc(OC(F)(F)F)ccc4Cl)CC3)ccc(F)c2N1`, 190.4 to 190.5 °C; with `CC(C)c1ccccc1N1CCC(O)(COc2ccc(F)c3c2CCC(=O)N3)CC1`, 163 to 163.3 °C. For the compound `Cc1cc(N2CCC(O)(COc3ccc(F)c4c3CCC(=O)N4)CC2)ccc1Cl`, the melting point was 216.1 to 216.3 °C. In the case of `CCOC(=O)c1cc(N2CCC(O)(COc3ccc(F)c4c3CCC(=O)N4)CC2)ccc1Cl`, the melting point came out at 148 °C.

In the case of `Cc1ccc(N2CCC(O)(COc3ccc(F)c4c3CCC(=O)N4)CC2)cc1`, the melting point was 181 °C.

On to `O=C1CCc2c(OCC3(O)CCN(c4ccc(Cl)cc4[N+](=O)[O-])CC3)ccc(F)c2N1`, for which the melting point fell in the range of 188 to 189 °C. With `CCCOc1ccc(N2CCC(O)(COc3ccc(F)c4c3CCC(=O)N4)CC2)c(F)c1` the figure was 185.1 to 185.9 °C; with `CCCc1ccc(N2CCC(O)(COc3ccc(F)c4c3CCC(=O)N4)CC2)c(Cl)c1`, 197.5 to 197.6 °C. Under `CC(C)Oc1ccc(N2CCC(O)(COc3ccc(F)c4c3CCC(=O)N4)CC2)c(F)c1` stands 191.9 to 192.2 °C; under `O=C1CCc2c(OCC3(O)CCN(c4ccc(OC(F)(F)F)cc4Cl)CC3)ccc(F)c2N1`, 181.8 to 181.9 °C. In the case of `O=C1CCc2c(OCC3(O)CCN(c4cc(OC(F)(F)F)c(Cl)cc4Cl)CC3)ccc(F)c2N1`, the melting point lay within 254.8 to 254.9 °C.

`COc1ccc(N2CCC(O)(COc3ccc(F)c4c3CCC(=O)N4)CC2)c(F)c1` registered a melting point of 201.3 to 201.9 °C.
